Some test systems named below: BT-549 breast; UO-31 renal; HS 578T breast; HL-60(TB) leukemia; RXF 393 renal; A549 NSCLC; UACC-62 melanoma; NCI/ADR-RES ovarian; MDA-MB-435; SN12C renal.
Common to all, as to experiment: DTP human tumour cell line panel, 48 h

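Following 48 hours of exposure in 96-well plates, responses at five concentrations were used to interpolate endpoints linearly. GI50 = concentration required for 50% inhibition of growth. Definition used: TGI = concentration required for complete inhibition of growth.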 Where only a bound is given, the exact number is not on record here.

One may read the TGI as the concentration at which net growth stops. A low value points to more potent growth arrest. Consider `Cc1ccc(C(=O)C2CC3(CCC2(O)c2ccc(C)cc2)CC(=O)Nc2ccccc2C3=O)cc1` (stereo not given), for which the TGI in the test with BT-549 breast, in the test on UO-31 renal, in the test on HS 578T breast, in the test with HL-60(TB) leukemia, in the test on RXF 393 renal and in the test with A549 NSCLC was over 100 µM throughout. Moreover, the concentration for total growth inhibition (TGI) in the test on UACC-62 melanoma, in the test with NCI/ADR-RES ovarian, in the test on MDA-MB-435 and in the test on SN12C renal was over 100 µM each time.

`CCCCCCCCCCCCCCCC(=O)OCC(COP(=O)(O)OCCNC(=O)CCSSc1ccccn1)OC(=O)CCCCCCCCCCCCCCC` (stereo not given): the TGI in the test with BT-549 breast, in the test on UO-31 renal, in the test on HS 578T breast, with HL-60(TB) leukemia, in the test with RXF 393 renal and with A549 NSCLC was over 100 µM in each case. The TGI with UACC-62 melanoma, in the test on NCI/ADR-RES ovarian, with MDA-MB-435 and with SN12C renal was over 100 µM throughout.

Consider `CCCCCNC(=O)OC1CCn2c1nc1c2C(=O)C(C)=C(N2CC2)C1=O` (stereo not given), for which the TGI in the test with BT-549 breast was 3.08 µM; in the test with UO-31 renal it was 3.87 µM; in the test with HS 578T breast, 6.24 µM; in the test with HL-60(TB) leukemia, over 100 µM; with RXF 393 renal, 1.82 µM; with A549 NSCLC, 2.57 µM. Moreover, the concentration for total growth inhibition (TGI) worked out at 3.54 µM in the test on UACC-62 melanoma, 10.4 µM in the test on NCI/ADR-RES ovarian, 3.13 µM in the test on MDA-MB-435 and 3.27 µM in the test with SN12C renal.

Regarding `CC1SCCc2nc3ccccc3n21` (stereo not given), the TGI in the test with BT-549 breast, in the test with UO-31 renal, in the test on HS 578T breast, in the test with HL-60(TB) leukemia, in the test with RXF 393 renal and in the test with A549 NSCLC was over 100 µM each time. Moreover, the TGI in the test on UACC-62 melanoma, in the test with NCI/ADR-RES ovarian, in the test with MDA-MB-435 and with SN12C renal was over 100 µM in each case.

For orientation: GI50 means the concentration at which growth is held to half of that of the control. Regarding `Cc1cc(N(CCCl)CCCl)ccc1/C=N\NC(=O)c1cccnc1`, the GI50 is 19.4 µM in the test with BT-549 breast; 21.6 µM in the test with UO-31 renal; 48.6 µM in the test on HS 578T breast; 4.3 µM with HL-60(TB) leukemia; 19.2 µM in the test on RXF 393 renal; 21 µM in the test on A549 NSCLC. Moreover, the GI50 was 4.51 µM in the test on UACC-62 melanoma, 13.7 µM in the test with NCI/ADR-RES ovarian, 24.6 µM in the test with MDA-MB-435 and 22.4 µM in the test on SN12C renal. The TGI in the test with BT-549 breast is 61.6 µM; with UO-31 renal, 82.7 µM; with HS 578T breast, over 100 µM; in the test with HL-60(TB) leukemia, 26.4 µM; in the test on RXF 393 renal, 48.6 µM; in the test with A549 NSCLC, over 100 µM. In addition, the TGI was 25.2 µM with UACC-62 melanoma, 48.7 µM with NCI/ADR-RES ovarian, over 100 µM in the test on MDA-MB-435 and over 100 µM in the test on SN12C renal.

`COc1ccc(OC)c2c(Nc3ccc(S(=O)(=O)O)c4cc(S(=O)(=O)O)cc(S(=O)(=O)O)c34)cc(C)nc12`: the TGI in the test on BT-549 breast, with UO-31 renal, in the test with HS 578T breast, in the test on HL-60(TB) leukemia, with RXF 393 renal and in the test with A549 NSCLC was over 100 µM throughout. In addition, the TGI in the test on UACC-62 melanoma, in the test on NCI/ADR-RES ovarian, in the test with MDA-MB-435 and with SN12C renal was over 100 µM throughout.

Take `O=C(NCc1ccc(Cl)c(Cl)c1)c1nc2ccccc2nc1NCc1ccc(Cl)c(Cl)c1`: the TGI in the test on BT-549 breast, in the test on UO-31 renal, in the test on HS 578T breast, in the test with HL-60(TB) leukemia, in the test on RXF 393 renal and in the test with A549 NSCLC was over 100 µM in each case. Moreover, the TGI in the test with UACC-62 melanoma, in the test with NCI/ADR-RES ovarian, in the test with MDA-MB-435 and with SN12C renal was over 100 µM in each case.

On to `Cc1nnc(N)s/c1=N/O`, for which the TGI in the test with BT-549 breast, in the test with UO-31 renal, in the test on HS 578T breast, in the test on HL-60(TB) leukemia, in the test with RXF 393 renal and in the test with A549 NSCLC was over 100 µM in each case. For the same compound, the total growth inhibition concentration (TGI) with UACC-62 melanoma, with NCI/ADR-RES ovarian, in the test with MDA-MB-435 and in the test with SN12C renal was over 100 µM in each case.

The values above are taken from PubChem BioAssay (NCI).
